Measurements as given in ChEMBL document CHEMBL6071190, “Discovery of BAY 2666605, a Molecular Glue for PDE3A and SLFN12” (ACS Med Chem Lett, 2024).

How the values were obtained:
[1] = Metabolic stability in rat hepatocytes assessed as bioavailability at 1 uM measured upto 90 mins by LC-MS/MS analysis; assay type: ADME, Hepatocyte
[2] = Metabolic stability in human hepatocytes assessed as bioavailability at 1 uM measured upto 90 mins by LC-MS/MS analysis; assay type: ADME, Hepatocyte
A2058 = experiment: Antiproliferative activity against human A2058 cells incubated for 72 hrs by Cell Titer Glo luminescence assay; assay type: functional, cell-based; conditions: A2058, 72 h
[3] = Antiproliferative activity against human L3.3 cells incubated for 72 hrs by Cell Titer Glo luminescence assay; assay type: functional, cell-based; conditions: L3.3, 72 h
RVH-421 = experiment: Antiproliferative activity against human RVH-421 cells incubated for 72 hrs by Cell Titer Glo luminescence assay; assay type: functional, cell-based; conditions: RVH-421, 72 h
[4] = Antiproliferative activity against human NCI-H196 cells incubated for 72 hrs by Cell Titer Glo luminescence assay; assay type: functional, cell-based; conditions: NCI-H196, 72 h
SK-MEL3 = experiment: Antiproliferative activity against human SK-MEL3 cells incubated for 72 hrs by Cell Titer Glo luminescence assay; assay type: functional, cell-based; conditions: SK-MEL3, 72 h
HeLa = experiment: Antiproliferative activity against human HeLa cells incubated for 72 hrs by Cell Titer Glo luminescence assay; assay type: functional, cell-based
DK-MG = experiment: Antiproliferative activity against human DK-MG cells incubated for 72 hrs by Cell Titer Glo luminescence assay; assay type: functional, cell-based
Hs-578T = experiment: Antiproliferative activity against human Hs-578T cells incubated for 72 hrs by Cell Titer Glo luminescence assay; assay type: functional, cell-based
[5] = Selectivity ratio of IC50 for inhibition of full-length human PDE3A expressed in Sf9 cells to EC50 for antiproliferative activity against human HeLa cells
[6] = Antiproliferative activity against human NCI-H2172 cells incubated for 72 hrs by Cell Titer Glo luminescence assay; assay type: functional, cell-based; conditions: NCI-H2172, 72 h
[7] = Clearance in mouse blood; assay type: ADME, tissue-based
[8] = target: cGMP-inhibited 3',5'-cyclic phosphodiesterase 3A (Homo sapiens, UniProt Q14432); experiment: Inhibition of human full-length PDE3A expressed in Sf9 cells using [8-3H]adenosine 3', 5'-cyclic phosphate as substrate incubated for 60 mins by microbeta scintillation counting method
cGMP-inhibited 3',5'-cyclic phosphodiesterase 3A, sequence (Q14432 whole entry): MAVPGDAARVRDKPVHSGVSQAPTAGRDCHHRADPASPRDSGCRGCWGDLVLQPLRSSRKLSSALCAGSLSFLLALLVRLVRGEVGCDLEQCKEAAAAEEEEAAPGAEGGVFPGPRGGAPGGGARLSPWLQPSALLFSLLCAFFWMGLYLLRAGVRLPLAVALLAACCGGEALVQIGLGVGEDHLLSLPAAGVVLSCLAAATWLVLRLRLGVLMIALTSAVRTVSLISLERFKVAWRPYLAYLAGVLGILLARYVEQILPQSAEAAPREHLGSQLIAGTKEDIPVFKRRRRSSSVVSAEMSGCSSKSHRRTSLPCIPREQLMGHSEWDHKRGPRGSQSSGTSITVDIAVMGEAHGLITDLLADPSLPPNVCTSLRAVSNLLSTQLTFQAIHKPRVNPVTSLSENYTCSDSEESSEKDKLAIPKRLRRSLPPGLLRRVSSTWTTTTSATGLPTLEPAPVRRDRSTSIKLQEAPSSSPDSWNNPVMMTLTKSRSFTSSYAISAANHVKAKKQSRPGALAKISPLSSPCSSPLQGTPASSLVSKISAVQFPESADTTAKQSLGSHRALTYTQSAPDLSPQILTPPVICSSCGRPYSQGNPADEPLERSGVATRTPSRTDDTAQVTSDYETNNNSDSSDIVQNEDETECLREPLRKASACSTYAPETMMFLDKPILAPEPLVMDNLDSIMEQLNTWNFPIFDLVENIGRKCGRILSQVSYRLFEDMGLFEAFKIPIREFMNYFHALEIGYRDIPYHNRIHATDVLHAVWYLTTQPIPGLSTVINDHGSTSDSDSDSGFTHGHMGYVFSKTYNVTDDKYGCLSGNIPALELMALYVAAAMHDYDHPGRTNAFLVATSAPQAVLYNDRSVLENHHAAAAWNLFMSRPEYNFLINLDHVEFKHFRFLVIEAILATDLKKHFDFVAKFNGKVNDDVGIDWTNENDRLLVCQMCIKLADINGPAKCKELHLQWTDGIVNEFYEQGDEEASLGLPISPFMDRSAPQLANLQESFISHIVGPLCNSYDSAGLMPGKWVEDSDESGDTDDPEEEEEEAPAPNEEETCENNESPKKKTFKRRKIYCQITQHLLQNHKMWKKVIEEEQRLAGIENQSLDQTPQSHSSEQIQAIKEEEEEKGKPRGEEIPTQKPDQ

[9] = Clearance in rat blood; assay type: ADME, tissue-based
C32 = experiment: Antiproliferative activity against human C32 cells incubated for 72 hrs by Cell Titer Glo luminescence assay; assay type: functional, cell-based; conditions: C32, 72 h
[10] = Metabolic stability in dog hepatocytes assessed as bioavailability at 1 uM measured upto 90 mins by LC-MS/MS analysis; assay type: ADME, Canis lupus familiaris, Hepatocyte
[11] = Metabolic stability in mouse hepatocytes assessed as bioavailability at 1 uM measured upto 90 mins by LC-MS/MS analysis; assay type: ADME, Hepatocyte
[12] = Toxicity in NOD-SCID mouse assessed as weight loss at 10 mg/kg, po BID; assay type: organism-based; conditions: in vivo
[13] = Oral bioavailability in rat; assay type: ADME, organism-based; conditions: in vivo
[14] = Half life in iv dosed rat; assay type: ADME, organism-based; conditions: in vivo
GB-1 = experiment: Antiproliferative activity against human GB-1 cells incubated for 72 hrs by CellTiter-Glo luminescence assay; assay type: functional, cell-based; conditions: GB-1, 72 h
[15] = Oral bioavailability in mouse; assay type: ADME, organism-based; conditions: in vivo
[16] = Protein binding in plasma (unknown origin); assay type: ADME, cell-free; conditions: read-out: PPB (converted)
[17] = Toxicity in NOD-SCID mouse assessed as tolerability at 10 mg/kg, po BID; assay type: organism-based; conditions: in vivo
IGR-37 cell line = experiment: Antitumor activity against human IGR-37 cells xenografted in po dosed NMRI nude mouse assessed as tumor growth inhibition administered twice daily; assay type: functional, organism-based; conditions: dose 0.5-2.5 mg/kg
[18] = Antiproliferative activity against human IGR-37 cell line; assay type: functional, cell-based
[19] = Half life in iv dosed mouse; assay type: ADME, organism-based; conditions: in vivo
[20] = Oral bioavailability in dog; assay type: ADME, organism-based, Canis lupus familiaris; conditions: in vivo
[21] = Half life in iv dosed dog; assay type: ADME, organism-based, Canis lupus familiaris; conditions: in vivo

| Compound | predicted hepatic bioavailability (Fh) from hepatocyte stability at 1 µM [1] | hepatic bioavailability predicted from hepatocyte stability (Fh) at 1 µM [2] | EC50 (A2058) | EC50 [3] | EC50 (RVH-421) | EC50 [4] | EC50 (SK-MEL3) | EC50 (HeLa) | EC50 (DK-MG) | EC50 (Hs-578T) | Ratio IC50/EC50 [5] | EC50 [6] | clearance [7] | IC50 [8] | clearance [9] | EC50 (C32) | Fh at 1.5 h, 1 µM [10] | Fh at 1.5 h, 1 µM [11] | further results |
| --- | --- | --- | --- | --- | --- | --- | --- | --- | --- | --- | --- | --- | --- | --- | --- | --- | --- | --- | --- |
| C[C@@H]1OC(=O)NN=C1c1ccc(-n2cc(C(F)(F)F)cn2)c(C(F)(F)F)c1 | 93% | 79% | 96 nM | 312 nM | 262 nM | 355 nM | 5.26 nM | 2.29 nM | 59 nM | 116 nM | 265 | 101 nM | 18.3 mL/min/kg | 607 nM | 8.17 mL/min/kg | 132 nM | 87% | 63% |  |
| C[C@@H]1OC(=O)NN=C1c1ccc(-c2ccc(F)cc2)c(C(F)(F)F)c1 | 94% | 73% | 38 nM | 82 nM | 140 nM | 150 nM | 2.81 nM | 1.04 nM | 22 nM | 33 nM | 79 | 38 nM | 12.5 mL/min/kg | 82 nM | 4.17 mL/min/kg | 58 nM | 70% | 85% | Activity [12]: Non-Toxic; bioavailability [13]: > 95%; half-life [14]: 15 h; EC50 (GB-1): 8 nM; bioavailability [15]: > 95%; fraction unbound [16]: 0.002; Activity [17]: Non-Toxic; Activity (IGR-37 cell line): Dose-Dependent Effect; EC50 [18]: 3.1 nM; half-life [19]: 4.6 h; bioavailability [20]: > 95%; half-life [21]: 13 h |
| C[C@@H]1OC(=O)NN=C1c1ccc(-c2cnn(C(F)F)c2)c(C(F)(F)F)c1 | 99% | 32% | 25 nM | 15 nM | 47 nM | 32 nM | 0.38 nM | 0.18 nM | 13 nM | 20 nM | 202 | 37 nM | 197 mL/min/kg | 37 nM |  | 52 nM | 69% | 27% |  |
